Assay results reported in US20250101052A1, “COMPOUND FOR EGFR KINASE INHIBITOR, COMPOSITION, AND USE THEREOF” (INNOVATION INSTITUTE FOR ARTIFICIAL INTELLIGENCE IN …, priority 2021, published 2025).

Assays:
[1] = system: EGFR phosphorylation in Ba/F3-EGFR^L858R/T790M/C797S engineered cells; test: Cell phosphorylation inhibition effect (pEGFR ELISA); type: cell-based, human; details: for inhibitory effect on EGFR phosphorylation (in words): Ba/F3-EGFR^L858R/T790M/C797S engineered cells; for IC50: Mus musculus, Ba/F3 EGFR-L858R, EGF stimulated, ELISA pY1068, read-out: Cellular pEGFR Inhibition IC50 (nM) Ba/F3-EGFR^L858R/T790M/C797S
Method: Cell line: BaF3 cells with stable overexpression of EGFR^T790M/C797S/L858R mutant genes, named BaF3-EGFR^T790M/C797S/L858R cells.
(§1) a) The medium was preheated in a 37° C. water bath.
(§2) b) The cryopreservation tube was taken from the liquid nitrogen tank, quickly placed in a 37° C. water bath, and melted completely within 1 minute.
(§3) c) The cell suspension was transferred to a 15 mL centrifuge tube containing a 10 mL medium and centrifuged at 1000 rpm for 4 minutes.
(§4) d) The supernatant was discarded, the cells were resuspended in a 1 mL medium and transferred to a […] culture dish containing a 10 mL medium, 20% serum and 50 ng/mL EGF were administered to the first-generation medium, and culture was conducted in a 37° C. and 5% CO2 incubator.
(§5) b) The cells in the culture dish were blown evenly with a 5 mL pipette, and 500 μL of the cells were pipetted out to be inoculated into a new […] culture dish and cultured in a 37° C. and 5% CO2 incubator.
(§6) a) The compound to be tested (10 mM stock solution) was diluted with 100% DMSO to 1 mM, and diluted with a culture solution in a 24-well plate to prepare of a working solution of 2 μM concentration.
(§7) b) The 2 μM working solution was diluted with a triple dilution method to obtain working solutions with approximate concentrations of 2 μM, 600 nM, 200 nM, 60 nM, and 20 nM.
a) The cells at the logarithmic growth phase were centrifuged at 1000 rpm for 4 minutes, resuspended with a medium (containing 10% serum), and counted.
b) The cells were inoculated into a 24-well plate with a cell density of 2 million cells/well, and placed in a 37° C. and 5% CO2 incubator for stabilization overnight.
a) The prepared compound was added to a 96-well plate, with 100 μL per well. The final concentrations were 1 μM, 300 nM, 100 nM, 30 nM, 10 nM, and 0 nM, and the final concentration of DMSO was 0.2%. A medium and 0.2% DMSO served as a blank control.
b) 100 ng/mL EGF was added at 1 hour and 45 minutes of administration. After 15 minutes of EGF treatment, the cells were collected and centrifuged to obtain the supernatant.
(5) Detection of Intracellular pEGFR Content
The content of EGFR and pEGFR in the supernatant was determined using an ELISA kit (Abcam, ab126439-EGFR (pY1068)+total EGFR Human ELISA).
(§8) The data was analyzed using GraphPad Prism 8.0 software to obtain a fitted curve of activity of the compounds. The IC50 of the compounds was fitted from nonlinear regression equation.

[2] = system: BaF3-EGFR^L858R/T790M/C797S cells; test: BaF3 cell proliferation inhibition experiment (CCK-8); type: cell-based; details: Ba/F3 EGFR-L858R, 72 hours
From the text: BaF3 cell proliferation inhibition experiment: The compounds of the present invention have excellent inhibitory activity against the proliferation of BaF3-EGFR^L858R/T790M/C797S cells
A. Cell line: BaF3 cells with stable overexpression of wild-type genes are named BaF3-EGFR^WT, and BaF3 cells with stable overexpression of EGFR^L858R/T790M/C797S EGFR^del19/T790M/C797S EGFR^L858R/C797S and EGFR^del19/C797S mutant genes are named BaF3-EGFR^L858R/T790M/C797S BaF3-EGFR^del19/T790M/C797S BaF3-EGFR^L858R/C797S and BaF3-EGFR^del19/C797S cells, respectively. Mediums:
as §1, §2, §3, §4, §5, §6, §7
a) The cells at the logarithmic growth phase were centrifuged at 1000 rpm for 4 minutes, resuspended with a medium (containing 10% serum and 50 ng/mL EGF), and counted.
b) The cells were inoculated into a 96-well plate with a cell density of 4000 cells/well, and placed in a 37° C. and 5% CO2 incubator for culture for 12 hours.
a) The prepared compound was added to a 96-well plate, with 100 μL per well. The final concentrations were 1 μM, 300 nM, 100 nM, 30 nM, 10 nM, and 0 nM, and the final concentration of DMSO was 0.2%. A medium served as a blank control.
b) The cells were placed in 37° C. and 5% CO2 incubator for culture for 72 hours.
(5) Cell Viability Testing
a) The 96-well cell culture plate was taken out, and 20 μL of a CCK-8 reagent (Cell Counting Kit-8, Topscience, Catalog No. C0005) was added in the dark.
b) Mixing well was conducted on a horizontal shaking table at a room temperature at 100 rpm for 5 minutes.
c) The culture plate was placed in a 37° C. constant-temperature incubator for incubation.
d) Starting from the addition of the CCK-8, the absorbance at 450 nm was read using the TECAN microplate reader at 1 hour, 2 hours, and 3 hours, respectively.
as §8

Compound	inhibitory effect on EGFR phosphorylation (in words) [1]	IC50 [1] [nM]	IC50 [2] [nM]
CCc1cc(Nc2ncc(Cl)c(Nc3ccc(C)c(C)c3P(C)(C)=O)n2)c(OC)cc1N1CC2(CCN(C)CC2)C1 [Compound 24, (6-((5-Chloro-2-((5-ethyl-2-methoxy-4-(7-methyl-2,7-diazaspiro[3.5]non-2-yl)phenyl)amino)pyrimidin-4-yl)amino)-2,3-dimethylphenyl)dimethylphosphine oxide]	good inhibitory effect	150	43.3
CCc1cc(Nc2ncc(Cl)c(Nc3ccc(C)c(C)c3P(C)(C)=O)n2)c(OC)cc1N1CCC(N2CCN(C)CC2)CC1 [Comparative Compound A, reference compound]		405	47.3
CCc1cc(Nc2ncc(Cl)c(Nc3ccc(C)c(C)c3P(C)(C)=O)n2)c(OC)cc1N1CCC2(CC1)CC(N(C)C)C2 [Compound 6, (6-((5-chloro-2-((4-(2-(dimethylamino)-7-azaspiro[3.5]nonan-7-yl)-5-ethyl-2-methoxyphenyl)amino)pyrimidin-4-yl)amino)-2,3-dimethylphenyl)dimethylphosphine oxide]			67.6
CCc1cc(Nc2ncc(Cl)c(Nc3ccc(C)c(C)c3P(C)(C)=O)n2)c(OC)cc1N1CCC(N2C[C@H]3CC[C@@H](C2)N3C)CC1 [Compound 51, (6-((5-chloro-2-((5-ethyl-2-methoxy-4-(4-((1R,5S)-8-methyl-3,8-diazabicyclo[3.2.1]octan-3-yl)piperidin-1-yl)phenyl)amino)pyrimidin-4-yl)amino)-2,3-dimethylphenyl)dimethylphosphine oxide]	good inhibitory effect	132	131
